Assay results taken from patent publication US9827189B2, “Stable parenteral DNJ compositions” (AMICUS THERAPEUTICS, INC., priority 2013, dated 2017).
Entries after “also recorded” stand apart in the source; their conditions may differ. Structures can show the parent of a compound that is named as a salt.

Experiments:
human whole blood = experiment: Hemolytic potential in human whole blood; format: cell-based; conditions: 37 ° C. 30 minutes
Experimental: (§1) 1-DNJ-HCl was dissolved in sodium citrate buffer. 1-DNJ-HCl concentration was 30 mg/mL (resulting free 1-DNJ concentration was 25 mg/mL); sodium citrate buffer concentration was 50 mM at pH 5.0. 1-DNJ-HCl formulation was added to whole blood samples of male human, rat, and cynomolgus monkey. […]. Buffer served as a negative control, while Triton-X 100 (Lysing agent) served as a positive control. Additionally blood sample without any additions was used as a negative control. The samples were stored at 4° C. Blood samples were incubated at 37 ° C. for 30 minutes with the 1-DNJ-HCl formulation, after which the samples were centrifuged. The amount of hemoglobin in the supernatant from each centrifuged sample was measured using a commercially available hemoglobin assay kit (BioAssay Systems, QuantiChrom™ Hemoglobin Assay Kit) and the Tecan microplate reader.

[1] = system: cynomolgus monkey whole blood; experiment: Hemolytic potential in cynomolgus monkey whole blood; format: cell-based; conditions: 37 ° C. 30 minutes
Experimental: as §1

[2] = Stability and integrity of 1-DNJ-HCl in buffer solutions at 60° C. by NP-HPLC (UV and CAD) and discoloration; format: physicochemical
Experimental: 1-DNJ-HCl was dissolved in sodium phosphate buffer. 1-DNJ-HCl concentration was 60 mg/mL; sodium phosphate buffer concentration was 100 mM at pH 4.89. The formulation was stored at 60° C. for 4 days. 1-DNJ-HCl solution in water was used as a control. Reaction rate for small molecules such as 1-DNJ-HCl generally follows Arrhenius equation where reaction rate nearly doubles for every 10° C. increase in the temperature. Thus, under this model, the reaction rate at 60° C. would be 2^5 or 32 times the reaction rate at 10° C. Therefore during 4 days at 60° C. 1-DNJ-HCl would degrade by approximately the same percentage as during 128 days (4*32) at 10° C. The stability of 1-DNJ-HCl was measured by normal phase high performance liquid chromatography (NP-HPLC). 1-DNJ-HCl was recorded by UV chromatograms and by Charged Aerosol Detector (CAD) chromatograms. Mobile phase consisted of ACN/30 mM Ammonium Acetate (90/10, v/v). The flow rate was 1.0 ml/min with 5 μl injection at 400° C. UV absorbance was measured at 220 nm CAD detector settings were 35.0 psi, Gain: 100 pA. 1-DNJ-HCl was dissolved in sodium acetate buffer. The 1-DNJ-HCl concentration was 60 mg/mL; sodium acetate buffer concentration was 50 mM at pH 5.5. The formulation was stored at 60° C. for 4 days. 1-DNJ-HCl solution in water was used as control. Reaction rate for small molecules such as 1-DNJ-HCl generally follows the Arrhenius equation, in which the reaction rate nearly doubles for every 10°K increase in the temperature. Thus the reaction rate, under this model, at 60° C. would be 2^5 or 32 times the reaction rate at 10° C. Therefore during 4 days at 60° C. 1-DNJ-HCl would degrade by approximately same percentage as during 128 days at 10° C. The stability of 1-DNJ-HCl was measured by NP-HPLC. Presence of 1-DNJ-HCl was recorded by UV absorbance detector and by Charged Aerosol Detector. Mobile phase consisted of ACN/30 mM Ammonium Acetate (90/10, v/v). The flow rate was 1.0 ml/min with 5 μl injection at 400 C. UV absorbance was measured at 220 nm. CAD detector settings were 35.0 psi, Gain: 100 pA. 1-DNJ-HCl was dissolved in sodium citrate buffer that further includes EDTA. 1-DNJ-HCl concentration was 60 mg/mL; sodium citrate buffer concentration was 50 mM at pH 4.6. The EDTA concentration was 0.05% w/v. Some samples were stored under the nitrogen atmosphere (essentially 100% nitrogen) while others were stored under air. The formulation was stored at 60° C. for 8 days. Stability of 1-DNJ-HCl was measured by NP-HPLC. Presence of 1-DNJ-HCl was recorded by UV absorbance detector and by Charged Aerosol Detector. Mobile phase consisted of ACN/30 mM Ammonium Acetate (90/10, v/v). The flow rate was 1.0 ml/min with 5 μl injection at 400 C. UV absorbance was measured at 220 nm. CAD detector settings were 35.0 psi, Gain: 100 pA. 1-DNJ-HCl was dissolved in sodium citrate buffer. 1-DNJ-HCl concentration was 60 mg/mL; sodium citrate buffer concentration was 50 mM at pH 4.7. The formulation was stored at 60° C. for 8 days. 1-DNJ-HCl solution in water was used as control. Stability of 1-DNJ-HCl was measured by NP-HPLC. Presence of 1-DNJ-HCl was recorded by UV absorbance detector and by Charged Aerosol Detector. Mobile phase consisted of ACN/30 mM Ammonium Acetate (90/10, v/v). The flow rate was 1.0 ml/min with 5 μl injection at 400 C. UV absorbance was measured at 220 nm. CAD detector settings were 35.0 psi, Gain: 100 pA. 1-DNJ-HCl was dissolved in sodium citrate buffer. 1-DNJ-HCl concentration was 60 mg/mL; sodium citrate buffer concentration was 50 mM at pH 5.0. The formulation was stored at 60° C. for 17 days. The samples were stored under the nitrogen atmosphere (essentially 100% nitrogen). 1-DNJ-HCl solution in water was used as control. Reaction rate for small molecules such as 1-DNJ-HCl generally follows Arrhenius equation where reaction rate nearly doubles for every 10°K increase in the temperature. Thus reaction rate at 60° C. would be 2^5 or 32 times the reaction rate at 10° C. Therefore during 17 days at 60° C. […]

rat whole blood = experiment: Hemolytic potential in rat whole blood; format: cell-based, Sprague Dawley rat; conditions: 37 ° C. 30 minutes
Experimental: as §1

[3] = 500 μL blood mixed with 500 μL sample (30 mg/mL AT2220 or 0.1% Triton X-100)
[4] = 500 μL blood mixed with 500 μL sample, 30 mg/mL AT2220 dilution 1, 0.1% Triton X-100 dilution 100
[5] = 60 mg/mL in 50 mM sodium acetate buffer pH 5.5, 60° C., 4 days, hydrochloride
[6] = 60 mg/mL in 50 mM sodium citrate buffer pH 4.6, EDTA 0.05% w/v, nitrogen atmosphere, 60° C., 8 days
[7] = 60 mg/mL in 50 mM sodium citrate buffer pH 4.6, EDTA 0.05% w/v, stored under air, 60° C., 8 days
[8] = 60 mg/mL in 100 mM sodium phosphate buffer pH 4.89, 60° C., 4 days
[9] = 60 mg/mL in 100 mM sodium phosphate buffer pH 4.89, 60° C., 4 days, hydrochloride
[10] = control 1-DNJ-HCl aqueous solution, 60° C., 4 days
[11] = control 1-DNJ-HCl aqueous solution, 60° C., 8 days
[12] = control 1-DNJ-HCl aqueous solution, 60° C., 17 days
[13] = sodium citrate buffer, summary of the Examples

OC[C@H]1NC[C@H](O)[C@@H](O)[C@@H]1O [1-DNJ-HCl, 1-deoxynojirimycin hydrochloride]
% RBC lysis (human whole blood; [3]): 0.0%
Avg OD (n = 4) (human whole blood; [4]): 0.0755
% RBC lysis [1, 3]: 0.1%
Avg OD (n = 4) [1, 4]: 0.0649
Presence of 1-DNJ-HCl (NP-HPLC) ([2]; 60 mg/mL in 50 mM sodium acetate buffer pH 5.5, 60° C., 4 days): still present
Discoloration [2, 5]: discoloration of the acetate buffer solution was observed; also recorded: resulted in discoloration
New compounds (UV and CAD chromatograms) [2, 5]: detected presence of new compounds; also recorded: presence of additional compounds
Presence of 1-DNJ-HCl (NP-HPLC) ([2]; 60 mg/mL in 50 mM sodium citrate buffer pH 4.6, EDTA 0.05% w/v, 60° C., 8 days): still present
Discoloration [2, 6]: remained clear with no visible discoloration
New compounds (UV and CAD chromatograms) [2, 6]: No new compounds were detected
Discoloration [2, 7]: slight discoloration
New compounds (UV and CAD chromatograms) [2, 7]: showed presence of new compounds
Presence of 1-DNJ-HCl (NP-HPLC) ([2]; 60 mg/mL in 50 mM sodium citrate buffer pH 4.7, 60° C., 8 days): still present
Presence of 1-DNJ-HCl (NP-HPLC) ([2]; 60 mg/mL in 50 mM sodium citrate buffer pH 5.0, nitrogen atmosphere, 60° C., 17 days): still present
Presence of 1-DNJ-HCl (NP-HPLC) [2, 8]: still present
Stability [2, 8]: not stable
Discoloration [2, 9]: discoloration of the phosphate buffer solution was observed; also recorded: resulted in discoloration
New compounds (UV and CAD chromatograms) [2, 9]: detected presence of new compounds; also recorded: presence of additional compounds
Appearance of solution [2, 10]: remainded clear
New compounds (UV and CAD chromatograms) [2, 10]: No new compounds were detected
Discoloration [2, 11]: No discoloration was observed
New compounds (UV and CAD chromatograms) [2, 11]: No new compounds were detected
Discoloration [2, 12]: No discoloration was observed
New compounds (UV and CAD chromatograms) [2, 12]: No new compounds were detected
Relative stability among buffers ([2]; sodium citrate buffer compared with sodium phosphate and sodium acetate buffers): most stable
Additional compounds (HPLC) [2, 13]: little to no presence of additional compounds
Discoloration [2, 13]: little to no discoloration
% RBC lysis (rat whole blood; [3]): −0.3%
Avg OD (n = 4) (rat whole blood; [4]): 0.3535
